Measured values from PMC5855801, “Benzothiophenone Derivatives Targeting Mutant Forms of Estrogen Receptor-α in Hormone-Resistant Breast Cancers” (International Journal of Molecular Sciences, 2018).
pIC50: −log10 of the molar value.

How the values were obtained:
ERα− MDA-MB-231 cells = assay: Presto Blue cell viability assay, MDA-MB-231; assay type: cell-based, human; settings: ERα− MDA-MB-231, 96 h
[1] = target: T1, full-length ERα (estrogen binding site) (Homo sapiens, UniProt P03372); assay: E2 displacement fluorescence polarization assay (PolarScreen ERα Competitor Green); settings: highest concentration 6 µM, compared to positive control E2
T1 construct: in the presence of 25 nM full-length ERα and 4.5 nM flourescein-E2; purchased Life Technologies P2698
T1 sequence (P03372 1-595): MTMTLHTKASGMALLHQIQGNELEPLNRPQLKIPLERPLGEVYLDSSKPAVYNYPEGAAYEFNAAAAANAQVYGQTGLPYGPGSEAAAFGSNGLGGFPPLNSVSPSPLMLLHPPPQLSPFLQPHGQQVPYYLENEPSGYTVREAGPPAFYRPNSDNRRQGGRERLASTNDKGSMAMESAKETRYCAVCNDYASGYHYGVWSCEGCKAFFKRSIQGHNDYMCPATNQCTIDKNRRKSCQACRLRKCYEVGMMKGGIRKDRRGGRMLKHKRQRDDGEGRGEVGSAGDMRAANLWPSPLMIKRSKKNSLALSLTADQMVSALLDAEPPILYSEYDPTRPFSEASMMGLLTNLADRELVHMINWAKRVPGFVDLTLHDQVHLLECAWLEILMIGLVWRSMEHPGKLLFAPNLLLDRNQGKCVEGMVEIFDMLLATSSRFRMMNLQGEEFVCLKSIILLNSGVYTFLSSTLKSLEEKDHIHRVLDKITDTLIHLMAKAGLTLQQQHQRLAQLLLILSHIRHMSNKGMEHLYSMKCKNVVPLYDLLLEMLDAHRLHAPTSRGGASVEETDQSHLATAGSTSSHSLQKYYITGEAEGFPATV
Description: It should be noted that selective estrogen receptor modulators (SERMs) such as tamoxifen displace co-activator protein from AF2 allosterically, i.e., by binding to the estrogen binding site (EBS). To ascertain whether VPC-16606 is not an EBS binder, 17 β-estradiol (E2) displacement was assessed with the Polar Screen Estrogen Receptor-α Competitor Green Assay Kit (P2698, Life Technologies, Carlsbad, CA, USA).
E2 displacement was assessed with the PolarScreen ERα Competitor Assay Green kit (P2698; LifeTechnologies) as per the instructions of the manufacturer. Briefly, 50 µL of assay buffer containing VPC-16606 were added to a 50-μL mixture containing 2× full-length ERα and flourescein-E2 in each well of a […] black plate to obtain final concentrations of 0.2–6.3 μM of the test compound in the presence of 25 nM full-length ERα and 4.5 nM flourescein-E2. After 2 h, polarisation was measured on a Tecan F500 microplate reader.

ERα-LBD and SRC-3 = target: T2, ERα-LBD and SRC-3 (Homo sapiens, UniProt P03372); assay: Mammalian two-hybrid assay in MDA-MB-231 cells; assay type: cell-based; settings: 1 nM E2, 24 h, read-out: IC50 for interaction between ERα-LBD and SRC-3 fusion proteins
T2 construct: generated by cloning the LBD of ERα into the pACT vector; expressed in transfected cells; host or cells: MDA-MB-231
T2 sequence (P03372 311-547 limits assumed): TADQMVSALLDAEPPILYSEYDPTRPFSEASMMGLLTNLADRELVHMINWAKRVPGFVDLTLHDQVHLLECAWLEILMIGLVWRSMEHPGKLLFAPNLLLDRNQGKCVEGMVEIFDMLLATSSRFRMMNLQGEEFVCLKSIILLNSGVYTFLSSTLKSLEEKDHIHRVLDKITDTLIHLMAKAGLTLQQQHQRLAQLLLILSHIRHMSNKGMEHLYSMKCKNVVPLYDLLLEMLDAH
Description: The direct effect of VPC-16606 on ERα-co-activator recruitment was assessed by the mammalian two-hybrid system (Promega, Madison, WI, USA). MDA-MB-231 cells were transfected with pACT-ERα-LBD, pBIND-Steroid receptor coactivator protein-3 (pBIND-SRC-3), a luciferase reporter plasmid containing a GAL4 recognition sequence and a constitutively-active Renilla reporter plasmid. The cells were treated with a […] dilution of VPC-16606 starting at 50 µM.
For the mammalian two hybrid assay, the CheckMate^TM Mammalian Two-Hybrid System (Promega, Madison, WI, USA) was used. The pACT-ERα-LBD construct was generated by cloning the LBD of ERα into the pACT vector to produce the ERα-LBD protein fused to the VP16 activation domain. The SRC-3 coactivator peptide (aa 614–698) containing LXXLL (L, leucine; X, any amino acid) motifs 1 and 2 was cloned into the pBIND vector to generate the pBIND-SRC-3 construct expressing the SRC-3 protein fused to the GAL4-DNA binding domain. Full-length human ERα (hERαWT) was encoded on a pcDNA3.1 expression plasmid. Point mutations in the LBD were generated with the QuikChange mutagenesis kit (Stratagene, San Diego, CA, USA) using the hERαWT template. […]
MDA-MB-231 cells were seeded on 96-well plates (2 × 10^4 cells/well) in 150 µL of medium. […] After 24 h, the cells were lysed and luminescence was measured as for the luciferase transcriptional assay described above.

[2] = test system: pS2, PR, Cyclin D1 and CDC2 proteins; assay: Western blotting in TamR3 cells; assay type: cell-based, human; settings: TamR3, 24 h, effect at higher doses
Description: Serum-starved MCF7 and TamR3 cells were seeded onto a six-well plate at a density of 6 × 10^5 cells/well and treated the following day with VPC-16606 in the presence of 1 nM E2. One micromolar OHT was used as the positive control. After 24 h, cells were lysed in 1× radioimmunoprecipitation assay (RIPA) buffer. Twenty five micrograms of protein were loaded into SDS-PAGE gels and transferred to PVDF membranes. Membranes were incubated with pS2, PR Cyclin D1 and CDC2 antibodies or control α-actin antibody. Bound antibodies were detected using HRP-conjugated secondary antibodies. Chemiluminescence was detected with an Amersham ECL detection kit (GE Healthcare Life Sciences, Chicago, IL, USA), and bands were visualised using the G:BOX imager (Syngene, Cambridge, UK).

[3] = test system: ERα-dependent genes pS2, PR, Cyclin D1 and CDC2; assay: qRT-PCR of ERα-dependent genes in MCF7 cells; assay type: cell-based, human; settings: MCF7, 24 h, 1 nM E2
Description: mRNA levels were analyzed after treatment of MCF7 and TamR3 cells for 24 h with the test compounds as described previously. The fold change in expression of the genes was calculated using the 2^−ΔΔCt method with GAPDH as the internal control.

Question: Which “Cell growth (Presto Blue viability)” value (ERα− MDA-MB-231 cells) does the source give for `CC(=O)N(/N=C1\Sc2c(C)cccc2C1=O)c1ccccc1Cl` [VPC-16606] here?
Answer: without any effect

Question: And the “Displacement of fluorescein labelled E2 (FL-E2) from the EBS” value [1]?
Answer: minimal displacement

Question: What about the pIC50 (ERα-LBD and SRC-3) of the same compound?
Answer: 6.10

Question: And the “Expression of pS2, PR, Cyclin D1 and CDC2 proteins (Western blot)” value [2]?
Answer: decreased expression

Question: What about the “mRNA levels of ERα-dependent genes pS2, PR, Cyclin D1 and CDC2” value [3] of the same compound?
Answer: significantly downregulates
